# Measured values from US20140193802A1, “IDENTIFICATION OF AN ALTERED THERAPEUTIC SUSCEPTIBILITY TO ANTI-HCMV COMPOUNDS AND OF A RESISTANCE AGAINST ANTI-HCMV COMPOUNDS” (priority 2012, published 2014).
# Legend:
# Test in all cases: CPE-RA, letermovir-selected mutant
# Format in all cases: cell-based, human cytomegalovirus (HCMV)
# [1] = test system: HCMV AD169 mutant rAIC246-1 (UL56 L241P); conditions: for EC50: Human betaherpesvirus 5, AD169
# Method: (§1) HCMV Cytopathic Effect Reduction Assay (CPE-RA)
# (§2) CPE-RAs were performed basically as described elsewhere (HCMV replication assay). In brief, the addition of 2 μl test compound of 50, 5, 0.5, 0.05, 0.005, and 0.0005 mM DMSO stock solutions to 100 μl cell culture medium in duplicate was followed by serial 2-fold dilutions in 96-well microtiter plates. Each well was supplemented with 150 μl of either a suspension of 1×10^4 NHDF cells mixed with cell-free HCMV (multiplicity of infection (MOI), 0.03) or a suspension of 1×10^4 to 3×10^4 HCMV-infected and uninfected NHDF cells (MOI, 0.001 to 0.002). Non-infected and non-treated cells served as controls on each plate. Final compound concentrations ranged between 250 and 0.00005 μM. Plates were incubated for 6 to 7 days at 37° C. or until the virus control reached 100% CPE. A mixture containing 20% Giemsa stain (Merck) and 5% formalin solution (Merck) was added to the wells for fixation and staining. After extensive washing, plates were dried at 56° C. followed by visual evaluation using an overhead microscope (plaque magnifier; Tecnorama Zürich). Each assay was performed at least in triplicate, and standard deviations were calculated. The assay plate data were used to calculate the EC50 (CPE-RA), i.e., the concentration of drug that inhibits the CPE by 50% compared with an untreated virus-infected control.
# (§3) Drug-resistant HCMV AD169 mutants were selected by the single-step selection method or by serial passage of the virus in the presence of increasing concentration of Letermovir. Briefly, 5×10^3 AD169-infected NHDF cells/well (MOI, 0.03 PFU/cell) were seeded into the wells of 30 96-well microtiter plates. The infection was allowed to proceed under the exposure of 50 nM Letermovir (˜10×EC50) until a CPE developed in one or more of the compound-treated wells (indicative of resistant virus breakthrough). Non-infected and non-treated cells served as controls on each plate. Mutant virus amplification was accomplished after cultures achieved maximum CPE by the passage of cell-free supernatant virus in the presence of 50 nM Letermovir. The resultant Letermovir-resistant progeny virus mutants were plaque purified three times by limiting dilutions in the presence of Letermovir. The stability of resistance was tested by serially passaging plaque-purified viruses without selective pressure (8 to 10 times). The resistant phenotype of the mutants was confirmed by CPE reduction assays.
# [2] = test system: HCMV AD169 mutant rAIC246-10 (UL56 V236M); conditions: for EC50: Human betaherpesvirus 5, AD169, rAIC246-10 (UL56 V236M), CPE reduction assay, mean ± SD
# Method: as §1, §2, §3
# [3] = test system: HCMV AD169 mutant rAIC246-7 (UL56 L241P); conditions: for EC50: Human betaherpesvirus 5, AD169, rAIC246-7 (UL56 L241P), CPE reduction assay, mean ± SD
# Method: as §1, §2, §3
# [4] = test system: HCMV AD169 mutant rAIC246-8 (UL56 C325Y); conditions: for EC50: Human betaherpesvirus 5, AD169, rAIC246-8 (UL56 C325Y), CPE reduction assay, mean ± SD
# Method: as §1, §2, §3
# [5] = test system: HCMV AD169 mutant rAIC246-4 (UL56 V231L); conditions: for EC50: Human betaherpesvirus 5, AD169, rAIC246-4 (UL56 V231L), CPE reduction assay, mean ± SD
# Method: as §1, §2, §3
# [6] = test system: HCMV AD169 mutant rAIC246-6 (UL56 R369M); conditions: for EC50: Human betaherpesvirus 5, AD169, rAIC246-6 (UL56 R369M), CPE reduction assay, mean ± SD
# Method: as §1, §2, §3
SMILES,EC50 [1] [nM],EC50 [2] [nM],EC50 [3] [nM],EC50 [4] [nM],EC50 [5] [nM],EC50 [6] [nM],Resistance index (RI) = letermovir-EC50 mutant virus/letermovir-EC50 wild-type virus ([1]; rAIC246-1 vs AD169),Resistance index (RI) = letermovir-EC50 mutant virus/letermovir-EC50 wild-type virus ([2]; rAIC246-10 vs AD169),Resistance index (RI) = letermovir-EC50 mutant virus/letermovir-EC50 wild-type virus ([3]; rAIC246-7 vs AD169),Resistance index (RI) = letermovir-EC50 mutant virus/letermovir-EC50 wild-type virus ([4]; rAIC246-8 vs AD169),Resistance index (RI) = letermovir-EC50 mutant virus/letermovir-EC50 wild-type virus ([5]; rAIC246-4 vs AD169),Resistance index (RI) = letermovir-EC50 mutant virus/letermovir-EC50 wild-type virus ([6]; rAIC246-6 vs AD169)
Nc1nc(O)c2ncn(COC(CO)CO)c2n1 [Ganciclovir],1200 ± 200,1700 ± 300,2200 ± 600,2200 ± 1200,4200 ± 1300,2900 ± 900,–,–,–,–,–,–
"COc1cccc(N2CCN(C3=Nc4c(F)cccc4[C@H](CC(=O)O)N3c3cc(C(F)(F)F)ccc3OC)CC2)c1 [Letermovir, (S)-{8-fluoro-2-[4-(3-methoxyphenyl)-1-piperazinyl]-3-[2-methoxy-5-(trifluoromethyl)phenyl]-3,4-dihydro-4-quinazolinyl}acetic acid]",1240 ± 360,70 ± 20,920 ± 120,25000 ± 5530,130 ± 10,80 ± 20,221,13,164,4428,23,14
